# Read-outs that look alike come from different tables or passages of the source.
# Legend:
# TRPA1 = target: T1, TRPA1 (Homo sapiens, UniProt O75762); experiment: Bioassay in cells transfected with TRPA1, Prof. Lee laboratory, Duke University; assay type: cell-based
# T1 construct: expressed in transfected cells
# Excerpt: Data from the laboratory of Prof. Seok-Yong Lee's at Duke University.
# Seok-Yong Lee at Duke University (FIG. 3).
# tongue = experiment: Oral cavity screen, 15 mg of white crystals on dorsal surface of the tongue; assay type: in vivo, human
# Protocol: The first screening tests conducted in this discovery to assess candidates that produce refreshing cooling in the oral cavity. Test agents, prepared as 15 mg of white crystals, were placed on the dorsal surface of the tongue. The chemical structures and identifying characteristics are in Table 1.
# TRPM8 [1] = target: T2, TRPM8 (Homo sapiens, UniProt Q7Z2W7); details: Ref#2; cited from earlier work
# T2 sequence (Q7Z2W7 whole entry, species assumed): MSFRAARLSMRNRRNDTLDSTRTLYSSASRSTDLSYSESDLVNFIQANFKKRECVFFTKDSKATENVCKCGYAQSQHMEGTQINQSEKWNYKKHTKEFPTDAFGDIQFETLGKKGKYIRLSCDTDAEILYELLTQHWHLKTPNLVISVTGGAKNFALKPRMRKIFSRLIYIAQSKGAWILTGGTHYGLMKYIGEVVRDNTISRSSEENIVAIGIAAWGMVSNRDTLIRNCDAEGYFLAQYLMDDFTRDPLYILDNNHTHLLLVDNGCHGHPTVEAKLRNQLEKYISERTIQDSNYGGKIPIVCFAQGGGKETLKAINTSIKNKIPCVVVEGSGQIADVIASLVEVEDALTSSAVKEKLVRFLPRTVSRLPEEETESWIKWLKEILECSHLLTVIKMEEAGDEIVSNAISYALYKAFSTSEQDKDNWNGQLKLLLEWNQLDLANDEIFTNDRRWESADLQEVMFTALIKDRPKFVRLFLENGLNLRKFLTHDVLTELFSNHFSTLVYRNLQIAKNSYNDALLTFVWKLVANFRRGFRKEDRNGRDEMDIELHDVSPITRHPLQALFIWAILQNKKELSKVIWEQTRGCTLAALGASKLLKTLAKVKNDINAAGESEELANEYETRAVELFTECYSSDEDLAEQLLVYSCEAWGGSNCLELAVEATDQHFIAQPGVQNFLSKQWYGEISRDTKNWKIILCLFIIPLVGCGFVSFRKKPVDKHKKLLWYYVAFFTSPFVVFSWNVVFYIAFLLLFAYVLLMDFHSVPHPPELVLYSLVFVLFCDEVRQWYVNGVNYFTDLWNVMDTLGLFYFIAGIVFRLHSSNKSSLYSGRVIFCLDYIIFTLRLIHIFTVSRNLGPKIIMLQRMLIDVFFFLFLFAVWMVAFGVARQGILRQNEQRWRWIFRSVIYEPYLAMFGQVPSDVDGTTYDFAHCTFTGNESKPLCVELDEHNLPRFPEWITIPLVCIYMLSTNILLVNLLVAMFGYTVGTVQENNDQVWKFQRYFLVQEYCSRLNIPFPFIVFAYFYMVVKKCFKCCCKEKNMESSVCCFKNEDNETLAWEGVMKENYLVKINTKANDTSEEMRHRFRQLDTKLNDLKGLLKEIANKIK
# TRPM8 [2] = target: T2, TRPM8; details: Ref#6; cited from earlier work
# [3] = target: mouse cold-menthol receptor TRPM8 (Mus musculus, UniProt Q8R4D5); details: Ref#1; cited from earlier work
# Sequence of mouse cold-menthol receptor TRPM8 (Q8R4D5 whole entry): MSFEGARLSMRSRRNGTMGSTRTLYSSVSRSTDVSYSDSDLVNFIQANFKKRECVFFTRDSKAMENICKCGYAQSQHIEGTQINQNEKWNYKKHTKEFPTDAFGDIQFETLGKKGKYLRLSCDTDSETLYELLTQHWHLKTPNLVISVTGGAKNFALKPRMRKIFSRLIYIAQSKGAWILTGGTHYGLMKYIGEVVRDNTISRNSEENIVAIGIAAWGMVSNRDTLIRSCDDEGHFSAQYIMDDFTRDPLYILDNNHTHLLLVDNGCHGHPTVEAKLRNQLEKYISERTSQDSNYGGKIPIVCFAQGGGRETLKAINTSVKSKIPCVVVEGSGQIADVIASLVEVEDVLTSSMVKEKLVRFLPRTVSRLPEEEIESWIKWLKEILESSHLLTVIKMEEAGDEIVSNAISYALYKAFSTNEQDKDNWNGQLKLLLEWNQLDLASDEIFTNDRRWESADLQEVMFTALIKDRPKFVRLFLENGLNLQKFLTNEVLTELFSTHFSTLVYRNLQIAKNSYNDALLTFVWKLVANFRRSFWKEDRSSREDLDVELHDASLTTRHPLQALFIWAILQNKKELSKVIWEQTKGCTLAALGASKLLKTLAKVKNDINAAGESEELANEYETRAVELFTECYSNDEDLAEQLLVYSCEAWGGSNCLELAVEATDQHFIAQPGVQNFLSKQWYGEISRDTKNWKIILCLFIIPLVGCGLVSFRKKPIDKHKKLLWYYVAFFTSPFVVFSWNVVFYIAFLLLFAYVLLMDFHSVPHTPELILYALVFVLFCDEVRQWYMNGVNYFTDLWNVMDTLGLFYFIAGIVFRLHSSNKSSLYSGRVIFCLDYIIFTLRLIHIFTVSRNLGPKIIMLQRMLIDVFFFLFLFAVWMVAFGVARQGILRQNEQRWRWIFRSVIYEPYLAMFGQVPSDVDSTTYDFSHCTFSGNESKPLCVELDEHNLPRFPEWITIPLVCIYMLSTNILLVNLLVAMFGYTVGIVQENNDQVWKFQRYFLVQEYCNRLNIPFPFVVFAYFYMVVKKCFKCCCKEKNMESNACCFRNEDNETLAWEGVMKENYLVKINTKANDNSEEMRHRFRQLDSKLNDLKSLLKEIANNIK
# TRPM8 [4] = target: T2, TRPM8; experiment: Bioassay of FEMA 4557 (BUDA) on TRPM8, Prof. Lee laboratory, Duke University; assay type: cell-based
# philtrum skin = experiment: Philtrum skin assay of cooling; assay type: in vivo, human; details: for Duration (min) of cooling / Comments (sensation): 8% wt/vol gel on philtrum skin
# Excerpt: Wei (2012) proposed the use of the skin on the philtrum as a test site for cooling activity of chemicals. The philtrum is the midline groove above the upper lip border and vermilion and is the drug application site. The gel is placed on the philtrum with a cotton-tipped applicator up to the nasolabial folds and sometimes, but not deliberately, on the lower nostrils (subnasale). Cold receptors densely innervate the philtrum skin, second only to the surfaces of the eyeball, nasal surfaces, and anogenitalia. The lips also have a high density of “cold spots.” This is called the philtrum assay. The test substance is dissolved in a carrier, such as solvent, gel, or ointment and applied to the philtrum, a surface area of ˜10 to 12 cm2. The subject records sensations on the philtrum and environs on a scale of 0 to 3, as: 0=no changes in sensation, 1=a slight feeling of coolness, cold or tingling, 2=a clearcut feeling of coolness or cold and 3=a robust feeling of coolness and cold. The intervals for measurements are usually 0, 1, 3, 5 min after application, and at then 5 min or longer intervals thereafter until two successive zeros are obtained. Test substances are applied to the philtrum using a cotton-tipped applicator (Puritan Cotton-tipped applicators, or Q-Tips). The applicator tip is dipped into a reservoir bottle containing the liquid or semi-liquid (gel) test substance. The composition adhering to the cotton (about 0.2 mL) is put on the skin. A subject can practice the method in front of a mirror with a high-intensity light source.
# nasal cavity = experiment: Study 1: NasoNeb nebulizer delivery to nasal cavity of subjects with rhinitis; assay type: in vivo, human
# Protocol: Study 1. In this first study, a specialized nebulizer with an electronically controlled compressor was used to deliver FEMA 4557 to the nasal cavity of subjects with rhinitis. A typical dosage regimen was a 1.0 to 1.5% wt/vol solution (10 to 15 mg/mL) of FEMA 4557 over a 3 to 5 sec delivery period. […] No attempt was made to differentiate between delivered versus retained dose. The severity of rhinitis was quantified by gravimetric measurement of secretions and exudates from the nasal cavity (FIG. 15). Subjects were instructed to blow into a pre-weighed paper tissue and record the weight of the tissue after blowing. The tissue was inspected and marked as clear, with streaks of exudates, or dense gel. The nasal blowouts fell into three distinct categories of weights that were easy to recognize. […] The weight of the blowouts provides an objective index of nasal cavity inflammation. Nasal secretions were inhibited by topical administration of FEMA 4557, dissolved at 15 mg/ml in an ethanol, polysorbate 80, and saline mixture (FIG. 16). A Nasoneb® apparatus delivered FEMA 4557 into the nasal cavity (FIG. 13). The test substance was sprayed into the nasal cavity for 5 sec at t=0, 2, and 5 hr. The data points were fitted by linear regression (GraphPad Prism), and the 10-hr secretion was measured as ([…]). The results were vehicle 3.16±0.10 g and FEMA 4557 1.86±0.07 g, with n=6 and 5 observations per group, respectively. […] Inhibition of nasal secretions by topical administration of FEMA 4557, 15 mg/ml, delivered into the nasal cavity, is further illustrated by plotting the individual blowout units, in g per blowout FIG. 17. The test substances were sprayed into the nasal cavity for 5 sec at t=0, 2, and 5 hr. […] Thus, the anti-inflammatory effect of FEMA 4557 is further confirmed.
# skin = details: for treatment of skin dysesthesia (insect bites, skin allergies, thermal injury): topical gel on skin
# TRPM8 [5] = target: T2, TRPM8; details: Ref#3; cited from earlier work
# T1 sequence (O75762 whole entry, species assumed): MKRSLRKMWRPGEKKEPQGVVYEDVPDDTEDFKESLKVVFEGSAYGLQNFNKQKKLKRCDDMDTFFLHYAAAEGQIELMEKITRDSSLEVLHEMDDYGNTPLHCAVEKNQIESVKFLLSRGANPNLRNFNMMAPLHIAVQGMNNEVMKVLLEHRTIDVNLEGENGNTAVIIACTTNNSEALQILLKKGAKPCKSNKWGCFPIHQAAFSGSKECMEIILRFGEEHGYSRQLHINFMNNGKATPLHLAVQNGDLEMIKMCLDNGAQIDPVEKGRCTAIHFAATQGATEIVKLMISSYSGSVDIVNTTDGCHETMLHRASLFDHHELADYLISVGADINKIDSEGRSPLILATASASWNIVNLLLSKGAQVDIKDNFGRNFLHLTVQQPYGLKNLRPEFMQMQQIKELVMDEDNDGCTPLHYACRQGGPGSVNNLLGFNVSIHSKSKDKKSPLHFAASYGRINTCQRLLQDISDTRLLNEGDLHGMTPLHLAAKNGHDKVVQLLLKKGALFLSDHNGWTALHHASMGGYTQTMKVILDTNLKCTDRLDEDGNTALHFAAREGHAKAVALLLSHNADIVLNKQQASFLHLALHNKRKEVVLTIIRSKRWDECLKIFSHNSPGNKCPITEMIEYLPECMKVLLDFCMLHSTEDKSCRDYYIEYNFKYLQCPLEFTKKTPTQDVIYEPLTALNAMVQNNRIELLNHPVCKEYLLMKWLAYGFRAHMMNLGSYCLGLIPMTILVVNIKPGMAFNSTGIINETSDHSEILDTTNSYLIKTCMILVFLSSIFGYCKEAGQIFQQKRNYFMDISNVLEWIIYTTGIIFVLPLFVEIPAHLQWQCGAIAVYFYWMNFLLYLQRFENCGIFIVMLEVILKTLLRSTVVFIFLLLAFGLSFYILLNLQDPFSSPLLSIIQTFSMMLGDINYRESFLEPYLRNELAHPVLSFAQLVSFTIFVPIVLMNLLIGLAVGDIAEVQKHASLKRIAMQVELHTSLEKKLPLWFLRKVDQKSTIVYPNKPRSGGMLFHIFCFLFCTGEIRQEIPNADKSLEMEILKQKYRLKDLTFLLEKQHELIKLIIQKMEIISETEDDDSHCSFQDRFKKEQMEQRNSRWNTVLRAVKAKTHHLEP
smiles,measurement,setting,value
"C=CCN=C=S [AITC, allyl isothiocyanate]",activity on TRPA1,TRPA1,active
"CC(C)OC(=O)CNC(=O)[C@@H]1C[C@H](C)CC[C@H]1C(C)C [Ax-8, p-Menthane-Gly- OiPr]",Effects of 15 mg on tongue (duration),tongue,~27 min
same,Effects of 15 mg on tongue (sensation),tongue,pleasant cooling in oral cavity
CCOC(=O)[C@@H](C)NC(=O)[C@@H]1C[C@H](C)CC[C@H]1C(C)C [CPS-369],EC50,TRPM8 [1],3.6 µM
same,EC50,TRPM8 [2],65 µM
"CC(C)[C@@H]1CC[C@@H](C)C[C@H]1OCC(O)CO (some centres unmarked) [Cool 10, menthoxypropanediol]",EC50,[3],6 µM
"CCCCCCCP(=O)(C(C)C)C(C)C [Cryosim-1, 1-diisopropyl-phosphorylheptane]",Effects of 15 mg on tongue (sensation),tongue,"stinging, painful cold"
"CCNC(=O)C(CC)(C(C)C)C(C)C [FEMA 4557, N-ethyl-2,2-diisopropyl butanamide]",EC50 relative to that of l-menthol,TRPM8 [4],about 1/30
same,activity on TRPA1,TRPA1,not active
same,Effects of 15 mg on tongue (duration),tongue,> 35 min
same,average time of cooling,philtrum skin; 2% concentration,50 min
same,average time of cooling,philtrum skin; 4% concentration,95 min
same,average time of cooling,philtrum skin; 8% concentration,≥ 175 min
same,duration of cooling,"philtrum skin; 8% gel, FIG. 4",~3 h
same,Duration (min) of cooling,philtrum skin,180+ min
same,irritation of the skin,philtrum skin; concentrations of up to 12% weight/volume on philtrum skin,no irritation of the skin was observed with FEMA
same,10-hr nasal secretion (avg.±s.e.m),"nasal cavity; 15 mg/mL, 5 sec at t=0, 2 and 5 hr, NasoNeb, n=5, vehicle 3.16±0.10 g",1.86±0.07 g
same,individual nasal blowouts (average±s.e.m.),"nasal cavity; 15 mg/mL, 5 sec at t=0, 2 and 5 hr, NasoNeb, n=56, vehicle 0.38±0.03 g",0.21 ± 0.03 g
same,concentration that stops stuffiness of rhinitis and inhibits phlegm secretion,nasal cavity; applied to inflamed nasal membranes,≤ 1.5 % wt/vol
same,onset of beneficial effects after delivery,nasal cavity; topical nasal delivery,≤ 15 min
same,tissue irritation or inflammation on skin,"skin; human, in vivo",no tissue irritation or inflammation appeared on the skin
same,duration of stopping irritation of an insect sting,skin; topical gel 8 to 16% wt/vol,≥ 3 h
same,onset of stopping irritation of an insect sting,skin; topical gel 8 to 16% wt/vol,less than 3 minutes
same,topical concentration with anti-inflammatory activity on skin,skin; total dose of several mg,≥ 5 % wt/vol
same,EC50,TRPM8 [5],1.6 µM
CCNC(=O)[C@@H]1C[C@H](C)CC[C@H]1C(C)C [WS-3],Effects of 15 mg on tongue (duration),tongue,~8 min
same,Effects of 15 mg on tongue (sensation),tongue,pleasant cooling in oral cavity
same,EC50,TRPM8 [2],210 µM
same,EC50,TRPM8 [5],5.9 µM
CCOC(=O)CNC(=O)[C@@H]1C[C@H](C)CC[C@H]1C(C)C [WS-5],Effects of 15 mg on tongue (duration),tongue,~12 min
same,Effects of 15 mg on tongue (sensation),tongue,pleasant cooling in oral cavity
same,Comments (sensation),philtrum skin,pleasant cool sensations of skin
same,Duration (min) of cooling,philtrum skin,51 ± 4 min
same,"treatment of skin dysesthesia (insect bites, skin allergies, thermal injury)",skin,ineffective
same,EC50,TRPM8 [2],26 µM
same,EC50,TRPM8 [5],0.5 µM
COc1ccc(NC(=O)[C@@H]2C[C@H](C)CC[C@H]2C(C)C)cc1 [WS-12],Effects of 15 mg on tongue (duration),tongue,~20 min
same,Effects of 15 mg on tongue (sensation),tongue,pleasant cooling in oral cavity
same,Comments (sensation),philtrum skin,pleasant cool sensations on skin
same,Duration (min) of cooling,philtrum skin,38 ± 4 min
same,"treatment of skin dysesthesia (insect bites, skin allergies, thermal injury)",skin,ineffective
same,EC50,TRPM8 [1],0.2 µM
same,EC50,TRPM8 [5],22.1 µM
CNC(=O)C(C)(C(C)C)C(C)C [WS-23],Effects of 15 mg on tongue (duration),tongue,too short-lived
same,Effects of 15 mg on tongue (sensation),tongue,painful cold in throat
same,Effects of 15 mg on tongue (duration),tongue; listed as 3804,~18 min
same,Comments (sensation),philtrum skin,"short duration of action, no overt cold, but more"
same,Duration (min) of cooling,philtrum skin,25 ± 3 min
same,"treatment of skin dysesthesia (insect bites, skin allergies, thermal injury)",skin,ineffective
same,EC50,TRPM8 [2],1500 µM
same,EC50,TRPM8 [5],2.2 µM
CC1CCC(C(C)C)C(C(=O)OCC(O)CO)C1 (centres unmarked) [WS-30],EC50,TRPM8 [1],5.6 µM
O=C1NC(c2cccc([N+](=O)[O-])c2)=CCN1c1ccccc1O [icilin],EC50,TRPM8 [2],7 µM

# From US20250228800A1, “Treatment of nasal cavity inflammation and mucus hypersecretion” (priority 2024, published 2025)
